# Laboratory results taken from patent US10132795B2, “Method for evaluating or selecting agent for suppressing GIP level elevation” (Kao Corporation, priority 2014, dated 2018).
# Assays:
# [1] = test system: blood GIP and triglyceride (TG) concentrations; experiment: Single-dose administration test in mice (lipid emulsion load after FABP4/5 inhibitor); format: in vivo, mice (C57BL/6J); details: 30 mg/kg body weight intragastric
# Method: Mice (C57BL/6J, male, 9 weeks old, n=4 to 5, CLEA Japan, Inc.) were fasted for 18 hours and then given intragastric administration of the FABP4/5 inhibitor BMS309403 (30 mg/kg body weight) in a solvent (10% 1-methyl-2-pyrrolione, 5% cremophor, and 2% ethanol) or only the solvent (control) through feeding needles under anesthesia. After 30 minutes, intragastric administration of lipid emulsions (triolein; 2 mg/kg body weight) was given. Blood was collected from the orbital sinus before and 10, 30, and 60 minutes after the administration of lipid emulsions. The blood thus collected was centrifuged at 11,000 rpm, 4° C. for 10 minutes to prepare the plasma. The blood GIP and triglyceride (TG) concentrations were measured with a GIP ELISA kit (for rat/mouse) (Merck Millipore Corporation) and a triglyceride E-test Wako (Wako Pure Chemical Industries, Ltd.), respectively.
# [2] = test system: primary culture cells of the small intestine; experiment: FABP4/5 inhibition test: lipid micelle (PPM)-stimulated GIP secretion in primary culture cells of the small intestine; format: cell-based, C57BL/6J mice; details: inhibitor 10 or 25 μM, 30 min pre-incubation and 30 min PPM stimulation; compared to PPM group; FIG. 3
# Description: C57BL/6J mice, 13 to 17 weeks old, were euthanized by cervical dislocation under anesthesia. The upper part of the small intestine (up to 10 cm immediately below the pylorus) was taken out and immersed in ice-cooled L-15 media (Sigma-Aldrich Co. LLC.). The small intestine was then transferred to ice-cooled PBS. Fat, blood vessels, etc. adhering to the intestinal tract were carefully removed. The inside of the lumen was washed with ice-cooled PBS and the tissue was cut into small pieces (pieces having an area of 2 mm^2 or smaller) with a scalpel. The small pieces were washed three to four times with PBS, to which 10 mL of DMEM (Sigma-Aldrich Co. LLC.) having Collagenase XI (Sigma-Aldrich Co. LLC.; 0.4 mg/mL) dissolved therein was added, followed by vigorous shaking for 10 seconds and then incubation at 37° C. for five minutes. The supernatants were then removed and 10 mL of the Collagenase solution was added again, followed by vigorous shaking for 10 seconds and then incubation at 37° C. for five minutes. […]
# The media thus collected were centrifuged at 8,000 rpm, 4° C. for five minutes to obtain supernatants (secretion samples). […] GIP was quantitated in these samples with a GIP ELISA kit (for rat/mouse) (Merck Millipore Corporation) to obtain GIP secretion rates.
# [3] = test system: mouse model of type-II diabetes or arteriosclerosis; details: oral administration; Non Patent Literature 18; cited from earlier work
# [4] = 30 min before lipid emulsion, compared to control group, FIG. 2B
# [5] = 30 min before triolein lipid emulsion, blood at 10, 30, 60 min, compared to control (solvent) group, FIG. 2A
compound,measurement,setting,value
CCc1c(-c2ccccc2)c(-c2ccccc2)nn1-c1ccccc1-c1cccc(OCC(=O)O)c1 [BMS309403],Cmax of the blood GIP concentration,[1]; [4],statistically significantly reduced
same,iAUC (0-1 h) of the blood GIP concentration,[1]; [4],statistically significantly reduced
same,increase in the blood GIP concentration (ΔGIP) after the administration of lipid emulsions,[1]; [5],statistically significantly reduced
same,increase in the blood TG concentration (ΔTG) after the administration of lipid emulsions,[1]; [5],statistically significantly reduced
same,increase in the GIP secretion rate of PPM-stimulated cells,[2],dose-dependently suppressed
same,pathological condition in mouse model of type-II diabetes or arteriosclerosis,[3],Amelioration in the pathological condition
